From patent US10010539B2, “Pyrazole, triazole and tetrazole orexin receptor antagonists” (MERCK SHARP & DOHME CORP., priority 2014, dated 2018)

How the values were obtained:
human orexin-2 receptor = human orexin-2 receptor (Homo sapiens (Human), UniProt O43614); assay: FLIPR Ca2+ Flux Assay, orexin-2 receptor (hOX2R FLIPR); assay type: cell-based; settings: CHO cells expressing the human orexin-2 receptor; agonist 70 pM Ala-6,12 human orexin-A
Summary of the method: (§1)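 Antagonism is measured as loss of the intracellular Ca2+ signal that 70 pM Ala-6,12 human orexin-A triggers in dye-loaded CHO cells expressing rat OX1R or human OX2R. Compounds are given 5 min beforehand, and IC50 is taken as 50% inhibition of the agonist peak.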

[1] = target: hOXIR (orexin-1 receptor) (Homo sapiens, UniProt O43613); assay: FLIPR Ca2+ Flux Assay, orexin-1 receptor (hOXIR FLIPR); assay type: cell-based; settings: CHO cells expressing the orexin-1 receptor (method text: rat; table head: hOXIR); agonist 70 pM Ala-6,12 human orexin-A
Summary of the method: as §1

human orexin-2 receptor, sequence (O43614 whole entry): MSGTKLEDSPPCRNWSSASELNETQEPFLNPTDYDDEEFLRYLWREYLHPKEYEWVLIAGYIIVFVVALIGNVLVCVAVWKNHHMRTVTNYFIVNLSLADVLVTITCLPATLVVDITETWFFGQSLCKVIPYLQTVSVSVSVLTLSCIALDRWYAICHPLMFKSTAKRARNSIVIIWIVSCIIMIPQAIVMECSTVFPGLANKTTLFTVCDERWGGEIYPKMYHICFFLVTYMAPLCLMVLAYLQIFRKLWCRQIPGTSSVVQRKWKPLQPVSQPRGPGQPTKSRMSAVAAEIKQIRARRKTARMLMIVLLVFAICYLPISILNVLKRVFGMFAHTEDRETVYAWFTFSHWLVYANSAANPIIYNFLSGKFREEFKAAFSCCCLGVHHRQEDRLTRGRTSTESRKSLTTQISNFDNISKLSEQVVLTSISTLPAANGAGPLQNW

## C[C@@H]1CC[C@@H](n2cc(C(C)(C)O)cn2)CN1C(=O)c1ccccc1C1CC1 [Example 78, 2-(1-{(3R,6R)-1-[(2-Cyclopropylphenyl)carbonyl]-6-methylpiperidin-3-yl}-1H-pyrazol-4-yl)propan-2-ol]
Human orexin-2 receptor
  IC50: 0.0255 µM
[1]
  IC50: > 10 µM

## C[C@@H]1CC[C@@H](n2cc(C(C)(C)O)cn2)CN1C(=O)c1ccccc1OCC(F)F [Example 79, 2-{1-[(3R,6R)-1-{[2-(2,2-Difluoroethoxy)phenyl]carbonyl}-6-methylpiperidin-3-yl]-1H-pyrazol-4-yl}propan-2-ol]
Human orexin-2 receptor
  IC50: 0.127 µM
[1]
  IC50: > 10 µM

## C[C@@H]1CC[C@@H](n2cc(C(C)(C)O)cn2)CN1C(=O)c1ccccc1OCC(F)(F)F [Example 80, 2-{1-[(3R,6R)-6-Methy-1-{[2-(2,2,2-trifluoroethoxy)phenyl]carbonyl}piperidin-3-yl]-1H-pyrazol-4-yl}propan-2-ol]
Human orexin-2 receptor
  IC50: 0.165 µM
[1]
  IC50: > 10 µM

## CC(C)Oc1ccccc1C(=O)N1C[C@H](n2cc(C(C)(C)O)cn2)CC[C@H]1C [Example 81, 2-{1-[(3R,6R)-6-Methyl-1-{[2-(1-methylethoxy)phenyl]carbonyl}piperidin-3-yl]-1H-pyrazol-4-yl}propan-2-ol]
Human orexin-2 receptor
  IC50: 0.0898 µM
[1]
  IC50: > 10 µM

## CC(C)c1ccccc1C(=O)N1C[C@H](n2cc(C(C)(C)O)cn2)CC[C@H]1C [Example 82, 2-{1-[(3R,6R)-6-Methyl-1-{[2-(1-methylethyl)phenyl]carbonyl}piperidin-3-yl]-1H-pyrazol-4-yl}propan-2-ol]
Human orexin-2 receptor
  IC50: 0.347 µM
[1]
  IC50: > 10 µM

## C[C@@H]1CC[C@@H](n2cc(C(C)(C)O)cn2)CN1C(=O)c1ccccc1OC(F)(F)F [Example 83, 2-{1-[(3R,6R)-6-Methyl-1-{[2-(trifluoromethoxy)phenyl]carbonyl}piperidin-3-yl]-1H-pyrazol-4-yl}propan-2-ol]
Human orexin-2 receptor
  IC50: 0.0314 µM
[1]
  IC50: > 10 µM

## C[C@@H]1CC[C@@H](n2cc(C(C)(C)O)cn2)CN1C(=O)c1ccccc1OC(F)F [Example 84, 2-{1-[(3R,6R)-1-{[2-(Difluoromethoxy)phenyl]carbonyl}-6-methylpiperidin-3-yl]-1H-pyrazol-4-yl}propan-2-ol]
Human orexin-2 receptor
  IC50: 0.464 µM
[1]
  IC50: > 10 µM

## C[C@@H]1CC[C@@H](n2cc(C(C)(C)O)cn2)CN1C(=O)c1ccccc1[C@@H]1CC1(F)F [Example 85, 2-{1-[(3R,6R)-1-({2-[(1S)-2,2-Difluorocyclopropyl]phenyl}carbonyl)-6-methylpiperidin-3-yl]-1H-pyrazol-4-yl}propan-2-ol]
Human orexin-2 receptor
  IC50: 0.0094 µM
[1]
  IC50: 2.64 µM

## C[C@@H]1CC[C@@H](n2cc(C(C)(C)O)cn2)CN1C(=O)c1ccccc1[C@H]1CC1(F)F [Example 86, 2-{1-[(3R,6R)-1-({2-[(1R)-2,2-Difluorocyclopropyl]phenyl}carbonyl)-6-methylpiperidin-3-yl]-1H-pyrazol-4-yl}propan-2-ol]
Human orexin-2 receptor
  IC50: 0.152 µM
[1]
  IC50: > 10 µM

## C[C@@H]1CC[C@@H](n2cc(C(C)(C)O)cn2)CN1C(=O)c1ccccc1C1CCC1 [Example 87, 2-(1-{(3R,6R)-1-[(2-Cyclobutylphenyl)carbonyl]-6-methylpiperidin-3-yl}-1H-pyrazol-4-yl)propan-2-ol]
Human orexin-2 receptor
  IC50: 0.0493 µM
[1]
  IC50: 3.29 µM

## C[C@@H]1CC[C@@H](n2cc(C(C)(C)O)cn2)CN1C(=O)c1ccccc1SC(F)(F)F [Example 88, 2-{1-[(3R,6R)-6-Methyl-1-({2-[(trifluoromethyl)sulfanyl]phenyl}carbonyl)piperidin-3-yl]-1H-pyrazol-4-yl}propan-2-ol]
Human orexin-2 receptor
  IC50: 0.0152 µM
[1]
  IC50: 7.93 µM

## CCOc1ncccc1C(=O)N1C[C@H](n2cc(C(C)(C)O)cn2)CC[C@H]1C [Example 89, 2-(1-{(3R,6R)-1-[(2-Ethoxypyridin-3-yl)carbonyl]-6-methylpiperidin-3-yl}-1H-pyrazol-4-yl)propan-2-ol]
Human orexin-2 receptor
  IC50: 0.283 µM
[1]
  IC50: > 10 µM

## C[C@@H]1CC[C@@H](n2cc(C(C)(C)O)cn2)CN1C(=O)c1cccnc1-n1cccn1 [Example 90, 2-{1-[(3R,6R)-6-Methyl-1-{[2-(1H-pyrazol-1-yl)pyridin-3-yl]carbonyl}piperidin-3-yl]-1H-pyrazol-4-yl}propan-2-ol]
Human orexin-2 receptor
  IC50: 0.0336 µM
[1]
  IC50: > 10 µM

## C[C@@H]1CC[C@@H](n2cc(C(C)(C)O)cn2)CN1C(=O)c1ccc(F)cc1-n1nccn1 [Example 91, 2-{1-[(3R,6R)-1-{[4-Fluoro-2-(2H-1,2,3-triazol-2-yl)phenyl]carbonyl}-6-methylpiperidin-3-yl]-1H-pyrazol-4-yl}propan-2-ol]
Human orexin-2 receptor
  IC50: 0.0188 µM
[1]
  IC50: > 10 µM

## C[C@@H]1CC[C@@H](n2cc(C(C)(C)O)cn2)CN1C(=O)c1cccnc1-c1ccccc1 [Example 92, 2-(1-{(3R,6R)-6-Methyl-1-[(2-phenylpyridin-3-yl)carbonyl]piperidin-3-yl}-1H-pyrazol-4-yl)propan-2-ol]
Human orexin-2 receptor
  IC50: 0.195 µM
[1]
  IC50: > 10 µM

## C[C@@H]1CC[C@@H](n2cc(C(C)(C)O)cn2)CN1C(=O)c1ccccc1-n1cccn1 [Example 93, 2-{1-[(3R,6R)-6-Methyl-1-{[2-(1H-pyrazol-1-yl)phenyl]carbonyl}piperidin-3-yl]-1H-pyrazol-4-yl}propan-2-ol]
Human orexin-2 receptor
  IC50: 0.0927 µM
[1]
  IC50: > 10 µM

## C[C@@H]1CC[C@@H](n2cc(C(C)(C)O)cn2)CN1C(=O)c1cccnc1OCC(F)(F)F [Example 94, 2-{1-[(3R,6R)-6-Methyl-1-{[2-(2,2,2-trifluoroethoxy)pyridin-3-yl]carbonyl}piperidin-3-yl]-1H-pyrazol-4-yl}propan-2-ol]
Human orexin-2 receptor
  IC50: 0.037 µM
[1]
  IC50: > 10 µM

## C[C@@H]1CC[C@@H](n2cc(C(C)(C)O)cn2)CN1C(=O)c1nccnc1-n1cccn1 [Example 95, 2-{1-[(3R,6R)-6-Methyl-1-{[3-(1H-pyrazol-1-yl)pyrazin-2-yl]carbonyl}piperidin-3-yl]-1H-pyrazol-4-yl}propan-2-ol]
Human orexin-2 receptor
  IC50: 0.271 µM
[1]
  IC50: > 10 µM

## COc1ccc(C(=O)N2C[C@H](n3cc(C(C)(C)O)cn3)CC[C@H]2C)c(C2CC2)n1 [Example 96, 2-(1-{(3R,6R)-1-[(2-Cyclopropyl-6-methoxypyridin-3-yl)carbonyl]-6-methylpiperidin-3-yl}-1H-pyrazol-4-yl)propan-2-ol]
Human orexin-2 receptor
  IC50: 1.6 µM
[1]
  IC50: > 10 µM

## CC(C)Oc1ncccc1C(=O)N1C[C@H](n2cc(C(C)(C)O)cn2)CC[C@H]1C [Example 97, 2-{1-[(3R,6R)-6-Methyl-1-{[2-(1-methylethoxy)pyridin-3-yl]carbonyl}piperidin-3-yl]-1H-pyrazol-4-yl}propan-2-ol]
Human orexin-2 receptor
  IC50: 0.24 µM
[1]
  IC50: > 10 µM

## C[C@@H]1CC[C@@H](n2cc(C(C)(C)O)cn2)CN1C(=O)c1cccnc1OCC(F)F [Example 98, 2-{1-[(3R,6R)-1-{[2-(2,2-Difluoroethoxy)pyridin-3-yl]carbonyl}-6-methylpiperidin-3-yl]-1H-pyrazol-4-yl}propan-2-ol]
Human orexin-2 receptor
  IC50: 0.0588 µM
[1]
  IC50: > 10 µM

## C[C@@H]1CC[C@@H](n2cc(C(C)(C)O)cn2)CN1C(=O)c1ccccc1CC(F)F [Example 99, 2-{1-[(3R,6R)-1-{[2-(2,2-Difluoroethyl)phenyl]carbonyl}-6-methylpiperidin-3-yl]-1H-pyrazol-4-yl}propan-2-ol]
Human orexin-2 receptor
  IC50: 0.0384 µM
[1]
  IC50: > 10 µM

## COc1ccc(C(=O)N2C[C@H](n3cc(C(C)(C)O)cn3)CC[C@H]2C)c(C2CCC2)n1 [Example 100, 2-(1-{(3R,6R)-1-[(2-Cyclobutyl-6-methoxypyridin-3-yl)carbonyl]-6-methylpiperidin-3-yl}-1H-pyrazol-4-yl)propan-2-ol]
Human orexin-2 receptor
  IC50: 0.0608 µM
[1]
  IC50: > 10 µM

## C[C@@H]1CC[C@@H](n2cc(C(C)(C)O)cn2)CN1C(=O)c1nccnc1-n1nccn1 [Example 101, 2-{1-[(3R,6R)-6-Methyl-1-{[3-(2H-1,2,3-triazol-2-yl)pyrazin-2-yl]carbonyl}piperidin-3-yl]-1H-pyrazol-4-yl}propan-2-ol]
Human orexin-2 receptor
  IC50: 0.479 µM
[1]
  IC50: > 10 µM

## C[C@@H]1CC[C@@H](n2cc([C@@H](O)C(F)(F)F)cn2)CN1C(=O)c1ccccc1-n1nccn1 [Example 102, (1R)-2,2,2-Trifluoro-1-{1-[(3R,6R)-6-methyl-1-{[2-(2H-1,2,3-triazol-2-yl)phenyl]carbonyl}piperidin-3-yl]-1H-pyrazol-4-yl}ethanol]
Human orexin-2 receptor
  IC50: 0.124 µM
[1]
  IC50: > 10 µM

## C[C@@H]1CC[C@@H](n2cc([C@H](O)C(F)(F)F)cn2)CN1C(=O)c1ccccc1-n1nccn1 [Example 103, (1S)-2,2,2-Trifluoro-1-{1-[(3R,6R)-6-methyl-1-{[2-(2H-1,2,3-triazol-2-yl)phenyl]carbonyl}piperidin-3-yl]-1H-pyrazol-4-yl}ethanol]
Human orexin-2 receptor
  IC50: 0.102 µM
[1]
  IC50: > 10 µM

## C[C@@H]1CC[C@@H](n2cc(C(C)(O)C(F)(F)F)cn2)CN1C(=O)c1ccccc1-n1nccn1 (stereo partly drawn) [Example 104, 1,1,1-Trifluoro-2-{1-[(3R,6R)-6-methyl-1-{[2-(2H-1,2,3-triazol-2-yl)phenyl]carbonyl}piperidin-3-yl]-1H-pyrazol-4-yl}propan-2-ol]
Human orexin-2 receptor
  IC50: 0.0134 µM
[1]
  IC50: 2.01 µM

## C[C@@H]1CC[C@@H](n2cc([C@@](C)(O)C(F)(F)F)cn2)CN1C(=O)c1ccccc1-n1nccn1 [Example 105, (2R)-1,1,1-Trifluoro-2-{1-[(3R,6R)-6-methyl-1-{[2-(2H-1,2,3-triazol-2-yl)phenyl]carbonyl}piperidin-3-yl]-1H-pyrazol-4-yl}propan-2-ol]
Human orexin-2 receptor
  IC50: 0.0094 µM
[1]
  IC50: 2.73 µM

## C[C@@H]1CC[C@@H](n2cc([C@](C)(O)C(F)(F)F)cn2)CN1C(=O)c1ccccc1-n1nccn1 [Example 106, (2S)-1,1,1-Trifluoro-2-{1-[(3R,6R)-6-methyl-1-{[2-(2H-1,2,3-triazol-2-yl)phenyl]carbonyl}piperidin-3-yl]-1H-pyrazol-4-yl}propan-2-ol]
Human orexin-2 receptor
  IC50: 0.0106 µM
[1]
  IC50: 2.06 µM
